target: Human LDHA (Homo sapiens (Human), UniProt P00338); assay: human LDHA primary biochemical assay; details: biochemical LDHA inhibitory activity, assay of Example 1; activity level classes defined in nM
Text: This example describes a human LDHA primary biochemical assay employed in the characterization of a compound of formula (I) in an embodiment of the invention.
Test compounds were placed in a Greiner Bio-One (Monroe, N.C.) 1536-well black solid bottom assay plate. 200 millimolar (mM) Tris HCl, pH 7.4, 100 micromolar (μM) EDTA and 0.01% TWEEN-20™, final concentration, was used as the assay buffer. The LDHA reagent was 2 nanomolar (nM) Human LDHA (Meridian Life Science, Inc., Memphis, Tenn.), final concentration, in assay buffer. The substrate reagent was 0.06 mM NADH and 0.2 mM sodium pyruvate, final concentration, in assay buffer. The resazurin/diaphorase coupling reagent was 0.037 mM resazurin and 0.133 milligrams per milliliter (mg/mL) diaphorase, final concentration, in assay buffer. The inhibition of LDHA activity was measured by fluorescence emission.

| IC50 | Molecule |
| --- | --- |
| 1000 to 57000 nM | Cc1ccc(C#Cc2cccc(-c3nn(-c4nc(C(=O)O)cs4)c(C(C4CC4)C4CC4)c3Cc3ccc([S+](N)(=O)[O-])c(F)c3)c2)s1 [Compound 126, 2-(5-(dicyclopropylmethyl)-4-(3-fluoro-4-sulfamoylbenzyl)-3-(3-((5-methylthiophen-2-yl)ethynyl)phenyl)-1H-pyrazol-1-yl) thiazole-4-carboxylic acid] |
| 100 to 1000 nM | Cc1ccc(C#Cc2cccc(-c3nn(-c4nc(C(=O)O)cs4)c(C(C)(C)C4CC4)c3Cc3ccc([S+](N)(=O)[O-])c(F)c3)c2)s1 [Compound 128, 2-(5-(2-cyclopropylpropan-2-yl)-4-(3-fluoro-4-sulfamoylbenzyl)-3-(3-((5-methylthiophen-2-yl)ethynyl)phenyl)-1H-pyrazol-1-yl) thiazole-4-carboxylic acid] |
| < 100 nM | NS(=O)(=O)c1ccc(Cc2c(-c3ccc(F)c(-c4ccc(F)c(F)c4)c3)nn(-c3nc(C(=O)O)cs3)c2CC2CC2)cc1F [Compound 136, 2-(5-(cyclopropylmethyl)-4-(3-fluoro-4-sulfamoylbenzyl)-3-(3′,4′,6-trifluoro-[1,1′-biphenyl]-3-yl)-1H-pyrazol-1-yl)thiazole-4-carboxylic acid] |
| < 100 nM | NS(=O)(=O)c1ccc(Cc2c(-c3ccc(F)c(C4=CCCO4)c3)nn(-c3nc(C(=O)O)cs3)c2CC2CC2)cc1F [Compound 148, 2-(5-(cyclopropylmethyl)-3-(3-(4,5-dihydrofuran-2-yl)-4-fluorophenyl)-4-(3-fluoro-4-sulfamoylbenzyl)-1H-pyrazol-1-yl)thiazole-4-carboxylic acid] |
| < 100 nM | NS(=O)(=O)c1ccc(Cc2c(-c3ccc(F)c(NC(=O)c4ccccc4)c3)nn(-c3nc(C(=O)O)cs3)c2CC2CC2)cc1F [Compound 152, 2-(3-(3-benzamido-4-fluorophenyl)-5-(cyclopropylmethyl)-4-(3-fluoro-4-sulfamoylbenzyl)-1H-pyrazol-1-yl)thiazole-4-carboxylic acid] |
| < 100 nM | CC(C)N1CC2(CN(c3cc(-c4nn(-c5nc(C(=O)O)cs5)c(CC5CC5)c4Cc4ccc(S(N)(=O)=O)c(F)c4)ccc3F)C2)C1 [Compound 158, 2-(5-(cyclopropylmethyl)-3-(4-fluoro-3-(6-isopropyl-2,6-diazaspiro[3.3]heptan-2-yl)phenyl)-4-(3-fluoro-4-sulfamoylbenzyl)-1H-pyrazol-1-yl)thiazole-4-carboxylic acid] |
| < 100 nM | Cc1ncc(-c2cc(-c3nn(-c4nc(C(=O)O)cs4)c(CC4CC4)c3Cc3ccc(S(N)(=O)=O)c(F)c3)ccc2F)[nH]1 [Compound 161, 2-(5-(cyclopropylmethyl)-3-(4-fluoro-3-(2-methyl-1H-imidazol-5-yl)phenyl)-4-(3-fluoro-4-sulfamoylbenzyl)-1H-pyrazol-1-yl)thiazole-4-carboxylic acid] |
| 1000 to 57000 nM | Cc1cc(-c2cccc(-c3nn(-c4nc(C(=O)O)cs4)c(CC4CC4)c3Cc3ccc(S(N)(=O)=O)c(F)c3)c2)ccc1Cl [Compound 170, 2-(3-(4′-chloro-3′-methyl-[1,1′-biphenyl]-3-yl)-5-(cyclopropylmethyl)-4-(3-fluoro-4-sulfamoylbenzyl)-1H-pyrazol-1-yl)thiazole-4-carboxylic acid] |
| 1000 to 57000 nM | NS(=O)(=O)c1ccc(Cc2c(-c3cccc(-c4ccc(C5CC5)c(F)c4)c3)nn(-c3nc(C(=O)O)cs3)c2CC2CC2)cc1F [Compound 171, 2-(3-(4′-cyclopropyl-3′-fluoro-[1,1′-biphenyl]-3-yl)-5-(cyclopropylmethyl)-4-(3-fluoro-4-sulfamoylbenzyl)-1H-pyrazol-1-yl)thiazole-4-carboxylic acid] |
| 100 to 1000 nM | COc1ccc(-c2cccc(-c3nn(-c4nc(C(=O)O)cs4)c(CC4CC4)c3Cc3ccc(S(N)(=O)=O)c(F)c3)c2)cc1Cl [Compound 172, 2-(3-(3′-chloro-4′-methoxy-[1,1′-biphenyl]-3-yl)-5-(cyclopropylmethyl)-4-(3-fluoro-4-sulfamoylbenzyl)-1H-pyrazol-1-yl)thiazole-4-carboxylic acid] |
| > 57000 nM | Cc1ccc(C#Cc2cccc(-c3nn(-c4nc(CO)cs4)c(CC4CC4)c3Cc3ccc(S(N)(=O)=O)c(F)c3)c2)s1 [Compound 181, 4-((5-(cyclopropylmethyl)-1-(4-(hydroxymethyl)thiazol-2-yl)-3-(3-((5-methylthiophen-2-yl)ethynyl)phenyl)-1H-pyrazol-4-yl)methyl)-2-fluorobenzenesulfonamide] |
| < 100 nM | NS(=O)(=O)c1ccc(Cc2c(-c3cccc(-c4ccc(C5CC5)cc4)c3)nn(-c3nc(C(=O)O)cs3)c2CC2CC2)cc1F [Compound 183, 2-(3-(4′-cyclopropyl-[1,1′-biphenyl]-3-yl)-5-(cyclopropylmethyl)-4-(3-fluoro-4-sulfamoylbenzyl)-1H-pyrazol-1-yl)thiazole-4-carboxylic acid] |
| 100 to 1000 nM | Cc1cc(-c2cc(-c3nn(-c4nc(C(=O)O)cs4)c(CC4CC4)c3Cc3ccc(S(N)(=O)=O)c(F)c3)ccc2F)ccc1Cl [Compound 185, 2-(3-(4′-chloro-6-fluoro-3′-methyl-[1,1′-biphenyl]-3-yl)-5-(cyclopropylmethyl)-4-(3-fluoro-4-sulfamoylbenzyl)-1H-pyrazol-1-yl)thiazole-4-carboxylic acid] |

The next lines start with the molecule.

| Molecule | IC50 |
| --- | --- |
| 2-(5-([1,1′-bi(cyclopropan)]-2-yl)-4- (3-fluoro-4-sulfamoylbenzyl)- 3-(3-((5-methylthiophen-2- yl)ethynyl)phenyl)-1H-pyrazol-1- yl)thiazole-4-carboxylic acid [Compound 134] | 100 to 1000 nM |
| Cc1ccc(C#Cc2cccc(-c3nn(-c4nc(C(=O)O)cs4)c(C(C)C4CC4)c3Cc3ccc([S+](N)(=O)[O-])c(F)c3)c2)s1 (stereo not shown) [Compound 116, 2-(5-(1-cyclopropylethyl)-4-(3-fluoro-4-sulfamoylbenzyl)-3-(3-((5-methylthiophen-2-yl)ethynyl)phenyl)-1H-pyrazol-1-yl)thiazole-4-carboxylic acid] | 100 to 1000 nM |
| Cc1ccc(C#Cc2cccc(-c3nn(-c4nc(B(O)O)cs4)c(CC4CC4)c3Cc3ccc(S(N)(=O)=O)c(F)c3)c2)s1 [Compound 135, (2-(5-(cyclopropylmethyl)-4-(3-fluoro-4-sulfamoylbenzyl)-3-(3-((5-methylthiophen-2-yl)ethynyl)phenyl)-1H-pyrazol-1-yl)thiazol-4-yl)boronic acid] | 1000 to 57000 nM |
| CC(=O)c1cc(-c2nn(-c3nc(C(=O)O)cs3)c(CC3CC3)c2Cc2ccc(S(N)(=O)=O)c(F)c2)ccc1F [Compound 140, 2-(3-(3-acetyl-4-fluorophenyl)-5-(cyclopropylmethyl)-4-(3-fluoro-4-sulfamoylbenzyl)-1H-pyrazol-1-yl)thiazole-4-carboxylic acid] | < 100 nM |
| N[S+](=O)([O-])c1ccc(Cc2c(-c3ccc(F)c(C(=O)N4CCCC4)c3)nn(-c3nc(C(=O)O)cs3)c2CC2CC2)cc1F [Compound 154] | < 100 nM |
| NS(=O)(=O)c1ccc(Cc2c(-c3ccc(F)c(-c4ncc[nH]4)c3)nn(-c3nc(C(=O)O)cs3)c2CC2CC2)cc1F [Compound 159, 2-(5-(cyclopropylmethyl)-3-(4-fluoro-3-(1H-imidazol-2-yl)phenyl)-4-(3-fluoro-4-sulfamoylbenzyl)-1H-pyrazol-1-yl)thiazole-4-carboxylic acid] | < 100 nM |
| NS(=O)(=O)c1ccc(Cc2c(-c3ccc(F)c(-c4nc5ccccc5[nH]4)c3)nn(-c3nc(C(=O)O)cs3)c2CC2CC2)cc1F [Compound 160, 2-(3-(3-(1H-benzo[d]imidazol-2-yl)-4-fluorophenyl)-5-(cyclopropylmethyl)-4-(3-fluoro-4-sulfamoylbenzyl)-1H-pyrazol-1-yl)thiazole-4-carboxylic acid] | < 100 nM |
| Cc1ccc(C#Cc2cccc(-c3nn(-c4nc(C(N)=O)cs4)c(CC4CC4)c3Cc3ccc(S(N)(=O)=O)c(F)c3)c2)s1 [Compound 163, 2-(5-(cyclopropylmethyl)-4-(3-fluoro-4-sulfamoylbenzyl)-3-(3-((5-methylthiophen-2-yl)ethynyl)phenyl)-1H-pyrazol-1-yl)thiazole-4-carboxamide] | 1000 to 57000 nM |
| Cc1ccc(C#Cc2cccc(-c3nn(-c4nc(C(=O)NS(C)(=O)=O)cs4)c(CC4CC4)c3Cc3ccc(S(N)(=O)=O)c(F)c3)c2)s1 [Compound 180, 2-(5-(cyclopropylmethyl)-4-(3-fluoro-4-sulfamoylbenzyl)-3-(3-((5-methylthiophen-2-yl)ethynyl)phenyl)-1H-pyrazol-1-yl)-N-(methylsulfonyl)thiazole-4-carboxamide] | 1000 to 57000 nM |
| CCc1cc(-c2cccc(-c3nn(-c4nc(C(=O)O)cs4)c(CC4CC4)c3Cc3ccc(S(N)(=O)=O)c(F)c3)c2)ccc1OC [Compound 182, 2-(5-(cyclopropylmethyl)-3-(3′-ethyl-4′-methoxy-[1,1′-biphenyl]-3-yl)-4-(3-fluoro-4-sulfamoylbenzyl)-1H-pyrazol-1-yl)thiazole-4-carboxylic acid] | 100 to 1000 nM |
| NS(=O)(=O)c1ccc(Cc2c(-c3cccc(-c4ccc(C5CCC5)cc4)c3)nn(-c3nc(C(=O)O)cs3)c2CC2CC2)cc1F [Compound 184, 2-(3-(4′-cyclobutyl-[1,1′-biphenyl]-3-yl)-5-(cyclopropylmethyl)-4-(3-fluoro-4-sulfamoylbenzyl)-1H-pyrazol-1-yl)thiazole-4-carboxylic acid] | 100 to 1000 nM |
| CCc1cc(-c2cc(-c3nn(-c4nc(C(=O)O)cs4)c(CC4CC4)c3Cc3ccc(S(N)(=O)=O)c(F)c3)ccc2F)ccc1OC [Compound 186, 2-(5-(cyclopropylmethyl)-3-(3′-ethyl-6-fluoro-4′-methoxy-[1,1′-biphenyl]-3-yl)-4-(3-fluoro-4-sulfamoylbenzyl)-1H-pyrazol-1-yl)thiazole-4-carboxylic acid] | 100 to 1000 nM |
